Each compound was assayed against T1, HCV-NS5b (Hepatitis C virus genotype 1b, UniProt Q9WMX2) (assay: HCV-NS5b Enzyme Assay). Conditions: 1 μM test compound; incorporation of [3H]-UTP, 37° C., 2 hours.
T1 construct: The cloned fragment was missing the C terminus 21 amino acid residues; (His)6 (C); made in house; host or cells: XL-1 cells (E. coli)
Type: biochemical
Description: The coding sequence of NS5b protein was cloned by PCR from pFKI389luc/NS3-3′/ET as described by Lohmann, V., et al. (1999) Science 285, 110-113 using the following primers: • […] (SEQ. ID. NO. 1) • […] (SEQ. ID. NO. 2)
The cloned fragment was missing the C terminus 21 amino acid residues. The cloned fragment is inserted into an IPTG-inducible expression plasmid that provides an epitope tag (His)6 at the carboxy terminus of the protein.
The recombinant enzyme was expressed in XL-1 cells and after induction of expression, the protein was purified using affinity chromatography on a nickel-NTA column. Storage condition is 10 mM Tris-HCl pH 7.5, 50 mM NaCl, 0.1 mM EDTA, 1 mM DTT, 20% glycerol at −20° C.
The polymerase activity was assayed by measuring incorporation of radiolabeled UTP into a RNA product using a biotinylated, heteropolymeric template, which includes a portion of the HCV genome. Typically, the assay mixture […] contains 10 mM Tris-HCl (pH 7.5), 5 mM MgCl2, 0.2 mM EDTA, 10 mM KCl, 1 unit/μL RNAsin. 1 mM DTT, 10 μM each of NTP, including [^3H]-UTP, and 10 ng/μL biotinylated heteropolymeric template. 20× test compound in 2 μl's was then added as a 100% DMSO solution to achieve a final DMSO concentration of 5%. For IC50 determination a 10-point dose response was used. The compounds were serial diluted 2-fold […]. Typically for IC50's, compounds were tested starting at 50 uM or 2 μm depending on the potency. Reactions were started with addition of 10×NS5B in 4 μl's and allowed to incubate at 37° C. for 2 hours. Reactions were quenched with 8 μL of 100 mM EDTA and reaction mixtures (30 μL) were transferred to streptavidin-coated scintillation proximity microtiter plates (FlashPlates) and incubated at 4° C. overnight. Incorporation of radioactivity was determined by scintillation counting (cpm). The % Inhibition at a particular concentration was determined using the following equation, % Inhibition=100−[100*(cpm with inhibitor−bg)/(cpm with no inhibitor−bg)] where bg was the background with no enzyme.

| inhibition at 1 µM [%] | % inhibition @ 1 μM [%] | SMILES |
| --- | --- | --- |
| 97.6 |  | O=C(O)c1ccc2c(C3CCCCC3)c(-c3ccc4nc(-c5ccccc5Cl)ccc4c3)n(CC(=O)N3CCOCC3)c2c1 [Compound 276, 2-[2-(2-Chloro-phenyl)-quinolin-6-yl]-3-cyclohexyl-1-(2-morpholin-4-yl-2-oxo-ethyl)-1H-indole-6-carboxylic acid] |
| 97 |  | O=C(O)c1ccc2c(C3CCCCC3)c(-c3ccc4nc(-c5cncs5)ccc4c3)n(CC(=O)N3CCOCC3)c2c1 [Compound 331, 3-Cyclohexyl-1-(2-morpholin-4-yl-2-oxo-ethyl)-2-(2-thiazol-5-yl-quinolin-6-yl)-1H-indole-6-carboxylic acid] |
| 92.1 |  | Cc1nc(C)c(-c2ccc3cc(-c4c(C5CCCCC5)c5ccc(C(=O)O)cc5n4CC(=O)N4CCC(N5CCCC5)CC4)ccc3n2)s1 [Compound 214, 1-[2-oxo-2-(4-pyrrolidin-1-yl-piperidin-1-yl)-ethyl]-2-[2-(2,4-dimethylthiazol-5-yl)-quinolin-6-yl]-3-cyclohexyl-1H-indole-6-carboxylic acid] |
| 63.6 |  | Cc1nc(C)c(-c2ccc3cc(-c4c(C5CCCCC5)c5ccc(C(=O)NCCC#N)cc5n4CC(=O)N4CCOCC4)ccc3n2)s1 [Compound 242, 3-Cyclohexyl-2-[2-(2,4-dimethyl-thiazol-5-yl)-quinolin-6-yl]-1-(2-morpholin-4-yl-2-oxo-ethyl)-1H-indole-6-carboxylic acid (2-cyano-ethyl)-amide] |
| 95.8 |  | Nc1cccc(-c2ccc(-c3c(C4CCCCC4)c4ccc(C(=O)O)cc4n3CC(=O)N3CCOCC3)cc2)c1 [Compound 315, 2-(3′-Amino-biphenyl-4-yl)-3-cyclohexyl-1-(2-morpholin-4-yl-2-oxo-ethyl)-1H-indole-6-carboxylic acid] |
|  | 98.0 | O=C(O)c1ccc2c(C3CCCCC3)c(-c3ccc4nc(-c5ccc(Cl)s5)ccc4c3)n(CC(=O)N3CCOCC3)c2c1 [Compound 225, 1-[N-morpholinocarbonylmethyl]-2-[2-(5-chlorothien-2-yl)quinolin-6-yl]-3-cyclohexyl-1H-indole-6-carboxylic acid] |
| 97.8 |  | N#Cc1cccc(-c2ccc(-c3c(C4CCCCC4)c4ccc(C(=O)O)cc4n3CC(=O)N3CCOCC3)cc2)c1 [Compound 306, 2-(3′-Cyano-biphenyl-4-yl)-3-cyclohexyl-1-(2-morpholin-4-yl-2-oxo-ethyl)-1H-indole-6-carboxylic acid] |
| 98.7 |  | Cc1cccc(-c2ccc3cc(-c4c(C5CCCCC5)c5ccc(C(=O)O)cc5n4CC(=O)N4CCOCC4)ccc3n2)c1 [Compound 231, 3-Cyclohexyl-1-(2-morpholin-4-yl-2-oxo-ethyl)-2-(2-m-tolyl-quinolin-6-yl)-1H-indole-6-carboxylic acid] |
|  | 98.0 | O=C(O)c1ccc2c(C3CCCCC3)c(-c3ccc4nc(-c5ccccn5)ccc4c3)n(CC(=O)N3CCOCC3)c2c1 [Compound 217, 1-[N-morpholinocarbonylmethyl]-2-[2-(pyrid-2-yl)-quinolin-6-yl]-3-cyclohexyl-1H-indole-6-carboxylic acid] |
| 98.2 |  | Cc1cccc(-c2ccc3cc(-c4c(C5CCCCC5)c5ccc(C(=O)O)cc5n4CC(=O)N4CCOCC4)ccc3c2)c1 [Compound 321, 3-Cyclohexyl-1-(2-morpholin-4-yl-2-oxo-ethyl)-2-(6-m-tolyl-naphthalen-2-yl)-1H-indole-6-carboxylic acid] |
| 101 |  | COc1ccc(-c2ccc3cc(-c4c(C5CCCCC5)c5ccc(C(=O)O)cc5n4CC(=O)N4CCOCC4)ccc3n2)c(OC)c1OC [Compound 272, 3-Cyclohexyl-1-(2-morpholin-4-yl-2-oxo-ethyl)-2-[2-(2,3,4-trimethoxy-phenyl)-quinolin-6-yl]-1H-indole-6-carboxylic acid] |
|  | 95.1 | Cc1ccc(-c2ccc3cc(-c4c(C5CCCCC5)c5ccc(C(=O)O)cc5n4CC(=O)N4CCOCC4)ccc3n2)o1 [Compound 223] |
| 95.2 |  | Cc1nc(C)c(-c2ccc3cc(-c4c(C5CCCCC5)c5ccc(C(=O)O)cc5n4Cc4ccccc4)ccc3n2)s1 [Compound 287, 1-Benzyl-3-cyclohexyl-2-[2-(2,4-dimethyl-thiazol-5-yl)-quinolin-6-yl]-1H-indole-6-carboxylic acid] |
| 84.5 |  | NC(=O)c1cc(-c2ccc3cc(-c4c(C5CCCCC5)c5ccc(C(=O)O)cc5n4CC(=O)O)ccc3n2)ccc1O [Compound 208, 1-carboxylmethyl-2-[2-(3-Carbamoyl-4-hydroxy-phenyl)-quinolin-6-yl]-3-cyclohexyl-1H-indole-6-carboxylic acid] |
| 101 |  | Cc1ccc(-c2ccc(-c3c(C4CCCCC4)c4ccc(C(=O)O)cc4n3CC(=O)N3CCOCC3)cc2)s1 [Compound 316, 3-Cyclohexyl-2-[4-(5-methyl-thiophen-2-yl)-phenyl]-1-(2-morpholin-4-yl-2-oxo-ethyl)-1H-indole-6-carboxylic acid] |
| 97.7 |  | Cc1nc(C)c(-c2ccc3cc(-c4c(C5CCCCC5)c5ccc(C(=O)O)cc5n4CC(=O)N4CCC(C)CC4)ccc3n2)s1 [Compound 280, 3-Cyclohexyl-2-[2-(2,4-dimethyl-thiazol-5-yl)-quinolin-6-yl]-1-[2-(4-methyl-piperidin-1-yl)-2-oxo-ethyl]-1H-indole-6-carboxylic acid] |
|  | 96.2 | O=C(O)c1ccc2c(C3CCCCC3)c(-c3ccc4nc(-c5ccsc5)ccc4c3)n(CC(=O)N3CCOCC3)c2c1 [Compound 228, 1-[N-morpholinocarbonylmethyl]-2-[2-thien-3-ylquinolin-6-yl]-3-cyclohexyl-1H-indole-6-carboxylic acid] |
| 97.3 |  | Cc1nc(C)c(-c2ccc3cc(-c4c(C5CCCCC5)c5ccc(C(=O)O)cc5n4CC(=O)N4CCOCC4)ccc3n2)s1 [Compound 210, 1-[N-morpholinocarbonylmethyl]-2-[2-(2,4-dimethylthiazol-5-yl)-quinolin-6-yl]-3-cyclohexyl-1H-indole-6-carboxylic acid] |
| 97.5 |  | COc1ccncc1-c1ccc(-c2c(C3CCCCC3)c3ccc(C(=O)O)cc3n2CC(=O)O)cc1 [Compound 308, 1-Carboxymethyl-3-cyclohexyl-2-[4-(4-methoxy-pyridin-3-yl)-phenyl]-1H-indole-6-carboxylic acid] |
|  | 98.4 | O=C(O)c1ccc2c(C3CCCCC3)c(-c3ccc4nc(-c5nccs5)ccc4c3)n(CC(=O)N3CCOCC3)c2c1 [Compound 227, 1-[N-morpholinocarbonylmethyl]-2-[2-thiazol-2-ylquinolin-6-yl]-3-cyclohexyl-1H-indole-6-carboxylic acid] |
| 98.9 |  | CCN(CC)C1CCN(C(=O)Cn2c(-c3ccc4nc(-c5sc(C)nc5C)ccc4c3)c(C3CCCCC3)c3ccc(C(=O)O)cc32)CC1 [Compound 275, 3-Cyclohexyl-1-[2-(4-diethylamino-piperidin-1-yl)-2-oxo-ethyl]-2-[2-(2,4-dimethyl-thiazol-5-yl)-quinolin-6-yl]-1H-indole-6-carboxylic acid] |
| 99.5 |  | Cc1ccnc(-c2ccc3cc(-c4c(C5CCCCC5)c5ccc(C(=O)O)cc5n4CC(=O)N4CCOCC4)ccc3n2)c1 [Compound 249, 3-Cyclohexyl-2-[2-(4-methyl-pyridin-2-yl)-quinolin-6-yl]-1-(2-morpholin-4-yl-2-oxo-ethyl)-1H-indole-6-carboxylic acid] |
| 97 |  | COc1ccc(-c2ccc(-c3c(C4CCCCC4)c4ccc(C(=O)O)cc4n3CC(=O)N3CCOCC3)cc2)cc1 [Compound 301, 3-Cyclohexyl-2-(4′-methoxy-biphenyl-4-yl)-1-(2-morpholin-4-yl-2-oxo-ethyl)-1H-indole-6-carboxylic acid] |
| 101 |  | O=C(O)c1ccc2c(C3CCCCC3)c(-c3ccc4cc(-c5ccccc5)ccc4c3)n(CC(=O)N3CCOCC3)c2c1 [Compound 328, 3-Cyclohexyl-1-(2-morpholin-4-yl-2-oxo-ethyl)-2-(6-phenyl-naphthalen-2-yl)-1H-indole-6-carboxylic acid] |
| 97.4 |  | N#Cc1ccc(-c2ccc(-c3c(C4CCCCC4)c4ccc(C(=O)O)cc4n3CC(=O)N3CCOCC3)cc2)cc1 [Compound 307, 2-(4′-Cyano-biphenyl-4-yl)-3-cyclohexyl-1-(2-morpholin-4-yl-2-oxo-ethyl)-1H-indole-6-carboxylic acid] |
| 100 |  | Cn1cccc1-c1ccc2cc(-c3c(C4CCCCC4)c4ccc(C(=O)O)cc4n3CC(=O)N3CCOCC3)ccc2n1 [Compound 271, 3-Cyclohexyl-2-[2-(1-methyl-1H-pyrrol-2-yl)-quinolin-6-yl]-1-(2-morpholin-4-yl-2-oxo-ethyl)-1H-indole-6-carboxylic acid] |

Reference: patent US20060211698A1, “Bicyclic heteroaryl derivatives for treating viruses” (Genelabs, Inc., priority 2005, published 2006)
